Results as given in patent US20220142995A1, “DUAL ATM AND DNA-PK INHIBITORS FOR USE IN ANTI-TUMOR THERAPY” (XRAD Therapeutics, Inc., priority 2019, published 2022).

Tested on: ATM and DNA-PK kinases
Assay: Immunoblot of radiation-induced phosphorylation of ATM, DNA-PKcs and KAP1 in MCF7 cells
Type: cell-based, human
Conditions: MCF7 cells, 20, 100, 500, 1000 nM, 30 min pre-treatment, 10 Gy, harvested 1 h later
Protocol: Cell Culture. The MCF-7 human breast carcinoma cell line and HCT116 p53 wild-type and HCT116 p53−/− cell lines were obtained from ATCC. […]
Immunoblotting. […] One hour after IR, cells were lysed in RIPA buffer ([…], pH 8.0, 150 mM NaCl, 0.1% SDS, 0.5% sodium deoxycholate, 1% IGEPAL® CA-630 (Sigma, 18896) for 20 min at 4° C. in the presence of protease and phosphatase inhibitor cocktails (Roche, #04693159001 & #04906837001). Cell lysates were centrifuged at 13,200 g for 10 min at 4° C. and supernatants were analyzed for protein content using BCA assay (Pierce™ BCA Protein Assay Kit, cat #23227, ThermoFisher Waltham, Mass. 02451) and equal amounts of protein/lane were used for subsequent immunoblot analyses. Proteins were denatured by adding NuPAGE LSD Sample Buffer [4×] […]

CC(C)NCCOc1ncc(-c2cc3c4c(cnc3cc2F)N(C)C(=O)C42CCC2)cc1NS(C)(=O)=O [Compound 569, N-(5-(7′-Fluoro-3′-methyl-2′-oxo-2′,3′-dihydrospiro[cyclobutane-1,1′-pyrrolo[2,3-c]quinolin]-8′-yl)-2-(2-(isopropylamino)ethoxy)pyridin-3-yl)methanesulfonamide]
inhibition of radiation-induced phosphorylation of DNA-PKcs Ser2056, ATM Ser1981 and KAP1 ser824: potent dose-dependent inhibition
